# Laboratory results as given in patent publication US7560468B2, “Substituted 1,4,8-triazaspiro[4,5]decan-2-one compounds” (Gruenenthal GmbH, priority 2004, dated 2009).
# Experiments:
# human CB2 receptor = human CB2 receptor (Homo sapiens, UniProt P34972); test: Affinity to the cannabinoid receptor CB2, displacement of [3H]-CP 55,940; settings: for Inhibition CB2 10 μM, % inhibition: membranes of HEK 293EBNA cells with human CB2 receptor; for Ki: CB2, Cheng Prusoff correction of IC50; for inhibition at 10 µM: read-out: Inhibition CB2 10 μM, % inhibition
# Sequence of human CB2 receptor (P34972 whole entry): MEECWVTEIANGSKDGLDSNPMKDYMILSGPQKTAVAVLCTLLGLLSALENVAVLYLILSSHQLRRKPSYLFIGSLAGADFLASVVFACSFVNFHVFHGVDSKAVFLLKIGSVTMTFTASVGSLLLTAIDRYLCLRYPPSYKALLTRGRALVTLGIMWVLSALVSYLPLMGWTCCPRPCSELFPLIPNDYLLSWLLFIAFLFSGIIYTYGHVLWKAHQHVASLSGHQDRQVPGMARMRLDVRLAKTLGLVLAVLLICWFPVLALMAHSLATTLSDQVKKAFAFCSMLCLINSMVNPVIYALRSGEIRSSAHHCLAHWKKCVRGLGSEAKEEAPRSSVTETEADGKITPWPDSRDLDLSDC
# Protocol: The radioligand used was tritium-labeled 5-(1,1-dimethylheptyl)-2-(5-hydroxypropyl)cyclohexyl)-1-alpha,2-beta,5-alpha)-phenol (^[3]H—CP 55,940 with 103.4 of Ci/mmol, 1 m Ci/mL). Determination was carried out in a test buffer comprising 50 mM of Tris-HCl, 2.5 mm of EDTA, 5 mm of MgCl2 and 1.0 mg/mL of fatty acid-free BSA. The test substances were in each case dissolved in DMSO.
# The affinity of the compounds of the invention to the CB2 receptor is determined by their ability to displace ^[3]H—CP from 55,940 of CB2 receptors in membranes of HEK 293 EBNA cells. For this purpose 8 μg of membranes (20 mL of a solution of membranes in a concentration of 400 g/ml) are incubated in wells of a microtiter plate with a 0.33 nM of solution of [3]H-CP 55,949 (120 of Ci/mmol) in a total volume of test buffer of 200 μL for 90 minutes at 30° C.
# Subsequently, either the test substances or WIN 55,212-2 for determination the non-specific binding are placed, dissolved in each case in dimethyl sulphoxide, in the wells so that in each case a concentration of the relevant substances of 10 μM is obtained.
# Incubation is continued for a further 40 minutes at 30° C. dc. […] The filters are washed nine times with 0.5 mL of ice-cold washing buffer (50 nM of Tris-HCl, 5 mM of MgCl2, 2.5 mm of EDTA, 2% of BSA, pH 7.4), air-dried, placed in scintillation liquid, and the radioactivity is determined with the aid of a scintillation counter.
# The percentage displacement of the radio-active ligand ^[3]H—CP 55,940 from its binding to the CB2 receptor is indicated as percentage inhibition of the specific binding. In order to determine Ki the IC50 inhibition concentrations are calculated based on of the percentage displacement achieved by the compounds of the general formula I to be tested at various concentrations causing a 50 percent displacement of the radioactive ligands.
# 5-HT transporter = target: T1, 5-HT transporter (Rattus norvegicus, UniProt P31652); test: Inhibition of 5-HT uptake in synaptosomes; type: biochemical; settings: for inhibition at 1 µM: read-out: Uptake_5-HT, rat, 1 μM, % inhibition
# T1 construct: from tissue; host or cells: rat brain synaptosomes (marrow/medulla and pons), P2 fraction
# T1 sequence (P31652 whole entry): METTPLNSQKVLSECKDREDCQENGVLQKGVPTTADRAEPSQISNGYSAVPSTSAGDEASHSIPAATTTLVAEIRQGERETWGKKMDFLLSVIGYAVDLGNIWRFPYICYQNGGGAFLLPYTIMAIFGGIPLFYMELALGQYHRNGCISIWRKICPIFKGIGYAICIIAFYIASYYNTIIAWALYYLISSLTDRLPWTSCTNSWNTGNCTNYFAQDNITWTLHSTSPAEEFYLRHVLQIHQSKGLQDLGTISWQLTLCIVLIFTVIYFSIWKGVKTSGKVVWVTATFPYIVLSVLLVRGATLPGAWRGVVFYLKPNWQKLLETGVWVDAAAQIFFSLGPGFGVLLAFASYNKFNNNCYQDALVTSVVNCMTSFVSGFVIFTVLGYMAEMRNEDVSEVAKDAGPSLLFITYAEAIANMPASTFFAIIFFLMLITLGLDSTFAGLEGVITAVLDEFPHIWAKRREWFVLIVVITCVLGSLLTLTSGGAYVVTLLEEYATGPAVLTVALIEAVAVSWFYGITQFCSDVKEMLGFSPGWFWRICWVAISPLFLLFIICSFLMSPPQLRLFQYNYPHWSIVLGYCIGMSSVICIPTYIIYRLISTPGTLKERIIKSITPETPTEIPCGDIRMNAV
# [1] = system: batrachotoxin (BTX) binding site of the sodium channel; test: Affinity to the batrachotoxin (BTX) binding site of the sodium channel; settings: rat cerebrocortex synaptosomes, [3H]-batrachotoxinin A20 α-benzoate 10 nM; test concentration not given
# NA transporter = test: Inhibition of noradrenalin uptake in synaptosomes; type: biochemical
Molecule,"Inhibition CB2 10 μM, % inhibition (human CB2 receptor) [%]",Ki (human CB2 receptor) [µM],"Uptake_5-HT, rat, 1 μM, % inhibition (5-HT transporter) [%]",BTX Inhibition [1],inhibition at 1 µM (5-HT transporter) [%],inhibition at 10 µM (human CB2 receptor) [%],"Uptake (NA), rat, 10 μM, % inhibition (NA transporter) [%]"
"1,3-Dibenzyl-8-(4-chlorobenzolsulfonyl)-1,4,8-triazaspiro[4,5]decan-2-one [Example 248]",87,1.2,,,,,
"1,3-Dibenzyl-8-(4-methoxy-benzolsulfonyl)-1,4,8-triazaspiro[4,5]decan-2-one [Example 249]",80,3.5,,,,,
"8-Benzolsulfonyl-1,3-dibenzyl-1,4,8-triazaspiro[4,5]decan-2-one [Example 247]",72,4,,,,,
"CC(C)C1NC2(CCN(S(=O)(=O)c3ccccc3Cl)CC2)NC1=O (stereo not shown) [Example 8, 8-(2-Chlorobenzolsulfonyl)-3-isopropyl-1,4,8-triazaspiro[4,5]decan-2-one]",41,,55,,,,
"O=C1C(Cc2ccccc2)NC2(CCN(S(=O)(=O)c3cccs3)CC2)N1Cc1ccccc1 (stereo not shown) [Example 16, 1,3-Dibenzyl-8-(thiophen-2-sulfonyl)-1,4,8-triazaspiro[4,5]decan-2-one]",,,,50,82,58,
"O=C1C(Cc2ccccc2)NC2(CCN(S(=O)(=O)c3cc(Cl)sc3Cl)CC2)N1Cc1ccccc1 (stereo not shown) [Example 20, 1,3-Dibenzyl-8-(2,5-dichlorothiophen-3-sulfonyl)-1,4,8-triazaspiro[4,5]decan-2-one]",,,,54,81,66,
"Cc1cc(C)c(C)c(S(=O)(=O)N2CCC3(CC2)NC(Cc2ccccc2)C(=O)N3Cc2ccccc2)c1C (stereo not shown) [Example 24, 1,3-Dibenzyl-8-(2,3,5,6-tetramethylbenzolsulfonyl)-1,4,8-triazaspiro[4,5]decan-2-one]",56,,66,67,,,
"CCCCN1C(=O)C(Cc2ccccc2)NC12CCN(S(=O)(=O)c1ccc(C(C)(C)CC)cc1)CC2 (stereo not shown) [Example 28, 3-Benzyl-1-butyl-8-[4-(1,1-dimethylpropyl)benzolesulfonyl]-1,4,8-triazaspiro[4,5]decan-2-one]",40,,75,41,,,
"COc1cc(C)c(S(=O)(=O)N2CCC3(CC2)NC(Cc2ccccc2)C(=O)N3Cc2ccccc2)c(C)c1C (stereo not shown) [Example 31, 1,3-Dibenzyl-8-(4-methoxy-2,3,6-trimethylbenzolsulfonyl)-1,4,8-triazaspiro[4,5]decan-2-one]",57,,67,82,,,
"CCc1ccc(S(=O)(=O)N2CCC3(CC2)NC(Cc2ccccc2)C(=O)N3Cc2ccccc2)cc1 (stereo not shown) [Example 35, 1,3-Dibenzyl-8-(4-ethylbenzolsulfonyl)-1,4,8-triazaspiro[4,5]decan-2-one]",61,,79,54,,,
"CCCCN1C(=O)C(Cc2ccccc2)NC12CCN(S(=O)(=O)c1cccc(Cl)c1)CC2 (stereo not shown) [Example 36, 3-Benzyl-1-butyl-8-(3-chlorobenzolsulfonyl)-1,4,8-triazaspiro[4,5]decan-2-one]",40,,65,49,,,
"CSCCC1NC2(CCN(S(=O)(=O)c3ccc(F)cc3F)CC2)N(Cc2cc(C)cc(C)c2)C1=O (stereo not shown) [Example 42, 8-(2,4-Difluorobenzolsulfonyl)-1-(3,5-dimethylbenzyl)-3-(2-methylsulfanylethyl)-1,4,8-triazaspiro[4,5]decan-2-one]",48,,,56,,,
"O=C1C(Cc2ccccc2)NC2(CCN(S(=O)(=O)c3ccc([N+](=O)[O-])cc3)CC2)N1Cc1ccccc1 (stereo not shown) [Example 43, 1,3-Dibenzyl-8-(4-nitrobenzolsulfonyl)-1,4,8-triazaspiro[4,5]decan-2-one]",62,,71,51,,,
"CCCCOc1ccc(S(=O)(=O)N2CCC3(CC2)NC(Cc2ccccc2)C(=O)N3CC(=O)OCC)cc1 (stereo not shown) [Example 73, Ethyl[3-benzyl-8-(4-butoxy-benzolsulfonyl)-2-oxo-1,4,8-triazaspiro[4,5]dec-1-yl]-acetate]",46,,80,52,,,
"CSCCC1NC2(CCN(S(=O)(=O)c3ccccc3Cl)CC2)N(Cc2ccccc2[N+](=O)[O-])C1=O (stereo not shown) [Example 82, 8-(2-Chlorobenzolsulfonyl)-3-(2-methylsulfanylethyl)-1-(2-nitrobenzyl)-1,4,8-triazaspiro[4,5]decan-2-one]",56,,49,71,,,
"CCCCN1C(=O)C(C(C)C)NC12CCN(C(=S)NC(C)C)CC2 (stereo not shown) [Example 107, 1-Butyl-3-isopropyl-2-oxo-1,4,8-triazaspiro[4,5]decan-8-thiocarboxylic acid isopropylamide]",,,,,28,56,
"CSCCC1NC2(CCN(C(=S)Nc3cc(C(F)(F)F)ccc3Cl)CC2)N(Cc2ccccc2C#N)C1=O (stereo not shown) [Example 147, 1-(2-Cyanobenzyl)-3-(2-methylsulfanylethyl)-2-oxo-1,4,8-triazaspiro[4,5]decan-8-thiocarboxylic acid (2-chloro-5-trifluoromethylbenzol)amide]",48,,33,81,,,
"CC(C)C1NC2(CCN(C(=S)NCc3ccc(F)cc3)CC2)N(Cc2ccccc2)C1=O (stereo not shown) [Example 179, 1-Benzyl-3-isopropyl-2-oxo-1,4,8-triazaspiro[4,5]decan-8-thiocarboxylic acid 4-fluorobenzylamide]",,,,58,47,43,
"CSCCC1NC2(CCN(C(=S)NCc3ccc(F)cc3)CC2)N(Cc2ccc(F)cc2)C1=O (stereo not shown) [Example 182, 1-(4-Fluorobenzyl)-3-(2-methylsulfanylethyl)-2-oxo-1,4,8-triazaspiro[4,5]decan-8-thiocarboxylic acid 4-fluorobenzylamide]",,,,69,30,64,
"O=C1C(Cc2ccccc2)NC2(CCN(C(=S)Nc3cc(C(F)(F)F)ccc3Cl)CC2)N1Cc1ccccc1F (stereo not shown) [Example 188, 3-Benzyl-1-(2-fluorobenzyl)-2-oxo-1,4,8-triazaspiro[4,5]decan-8-thiocarboxylic acid (2-chloro-5-trifluoromethylbenzol)amide]",49,,59,77,,,
"CCCCN1C(=O)C(C(C)C)NC12CCN(C(=O)Nc1cccc(C(=O)OCC)c1)CC2 (stereo not shown) [Example 215, Ethyl 3-[(1-butyl-3-isopropyl-2-oxo-1,4,8-triazaspiro[4,5]decan-8-carbonyl)amino]-benzoate]",,,,51,29,,33
"CCCCN1C(=O)C(CCSC)NC12CCN(C(=O)NCc1ccc(Cl)c(Cl)c1)CC2 (stereo not shown) [Example 219, 1-Butyl-3-(2-methylsulfanylethyl)-2-oxo-1,4,8-triazaspiro[4,5]decan-8-carboxylic acid 3,4-dichlorobenzylamide]",,,,70,37,,42
"C=CCN1C(=O)C(C(C)C)NC12CCN(C(=O)Nc1ccc(OC(F)(F)F)cc1)CC2 (stereo not shown) [Example 220, 1-Allyl-3-isopropyl-2-oxo-1,4,8-triazaspiro[4,5]decan-8-carboxylic acid (4-trifluoromethoxy-benzol)amide]",,,39,44,,,39
"CSCCC1NC2(CCN(C(=O)Nc3ccccc3)CC2)N(Cc2ccccc2C#N)C1=O (stereo not shown) [Example 224, 1-(2-Cyanobenzyl)-3-(2-methylsulfanylethyl)-2-oxo-1,4,8-triazaspiro[4,5]decan-8-carboxylic acid benzolamide]",,,37,30,,,38
"CCOC(=O)CN1C(=O)C(Cc2ccccc2)NC12CCN(C(=O)NCc1ccc(Cl)c(Cl)c1)CC2 (stereo not shown) [Example 225, Ethyl[3-benzyl-8-(3,4-dichlorobenzylcarbamoyl)-2-oxo-1,4,8-triazaspiro[4,5]dec-1-yl]-acetate]",,,,77,43,,33
"COc1cccc(NC(=O)N2CCC3(CC2)NC(CCSC)C(=O)N3Cc2cccc(C#N)c2)c1 (stereo not shown) [Example 236, 1-(3-Cyanobenzyl)-3-(2-methylsulfanylethyl)-2-oxo-1,4,8-triazaspiro[4,5]decan-8-carboxylic acid (3-methoxy-benzol)amide]",,,32,42,,,34
"CSCCC1NC2(CCN(C(=O)Nc3cccc(C#N)c3)CC2)N(Cc2ccc(F)cc2)C1=O (stereo not shown) [Example 244, 1-(4-Fluorobenzyl)-3-(2-methylsulfanylethyl)-2-oxo-1,4,8-triazaspiro[4,5]decan-8-carboxylic acid (3-cyanobenzol)amide]",,,52,47,,,32
"CS(=O)(=O)N1CCC2(CC1)NC(Cc1ccccc1)C(=O)N2Cc1ccccc1 (stereo not shown) [Example 246, 1,3-Dibenzyl-8-methansulfonyl-1,4,8-triazaspiro[4,5]decan-2-one]",,,,,,50,
